Laboratory results: PubChem BioAssay AID248 (DTP/NCI, 2004)
Where “and” joins values, the source holds several entries; their conditions need not be identical. Equal values may be shown once. Toxic doses and inconclusive results are not listed. Rule as the data show it: active = T/C of 150% or more; inactive = T/C below 125%.

Tested on: L1210 leukemia ip in BDF1 mice, survival T/C
Assay: NCI In Vivo Anticancer Drug Screen. Data for tumor model L1210 Leukemia (intraperitoneal) in B6D2F1 (BDF1) mice
Conditions: endpoint: mean survival time, higher = longer survival
Summary of the method: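 Tumor cells were implanted, animals were treated, and survival was followed. The result divides the treated measurement by the vehicle-control measurement.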

[1] = dose: 100.0 mg/kg/injection, schedule: Q01DX009 (ip), vehicle: Klucel (hydroxypropylcellulose) (HPC)
[2] = dose: 100.0 mg/kg/injection, schedule: Q04DX003 (ip), vehicle: Klucel (hydroxypropylcellulose) (HPC)
[3] = dose: 200.0 mg/kg/injection, schedule: Q01DX009 (ip), vehicle: Klucel (hydroxypropylcellulose) (HPC)
[4] = dose: 200.0 mg/kg/injection, schedule: Q04DX003 (ip), vehicle: Klucel (hydroxypropylcellulose) (HPC)
[5] = dose: 400.0 mg/kg/injection, schedule: Q04DX003 (ip), vehicle: Klucel (hydroxypropylcellulose) (HPC)
[6] = dose: 100.0 mg/kg/injection, schedule: Q04DX002 (ip), vehicle: Klucel (hydroxypropylcellulose) (HPC)
[7] = dose: 400.0 mg/kg/injection, schedule: Q04DX002 (ip), vehicle: Klucel (hydroxypropylcellulose) (HPC)
[8] = dose: 100.0 mg/kg/injection, schedule: Q04DX003 (ip), vehicle: saline with Tween-80
[9] = dose: 200.0 mg/kg/injection, schedule: Q04DX003 (ip), vehicle: saline with Tween-80
[10] = dose: 400.0 mg/kg/injection, schedule: Q04DX003 (ip), vehicle: saline with Tween-80
[11] = dose: 400.0 mg/kg/injection, schedule: Q01DX009 (ip), vehicle: Klucel (hydroxypropylcellulose) (HPC)
[12] = dose: 100.0 mg/kg/injection, schedule: Q04DX003 (ip), vehicle: saline
[13] = dose: 200.0 mg/kg/injection, schedule: Q04DX003 (ip), vehicle: saline
[14] = dose: 400.0 mg/kg/injection, schedule: Q04DX003 (ip), vehicle: saline
[15] = dose: 25.0 mg/kg/injection, schedule: Q01DX009 (ip), vehicle: saline with Tween-80
[16] = dose: 50.0 mg/kg/injection, schedule: Q01DX009 (ip), vehicle: saline with Tween-80
[17] = dose: 100.0 mg/kg/injection, schedule: Q01DX009 (ip), vehicle: saline with Tween-80

Measured: T/C

COc1ccc(/C=C/c2nc3ccccc3nc2/C=C/c2ccc(OC)c(OC)c2)cc1OC
inactive: [1] 95 % of control | [2] 88 % of control | [3] 86 % of control | [4] 91 % of control | [5] 97 % of control

CCOC(=O)C1C=NC([N+](=O)[O-])=C1Br (configuration not stated)
inactive: dose: 25.0 mg/kg/injection, schedule: Q04DX002 (ip), vehicle: Klucel (hydroxypropylcellulose) (HPC) 102 % of control | dose: 50.0 mg/kg/injection, schedule: Q04DX002 (ip), vehicle: Klucel (hydroxypropylcellulose) (HPC) 109 % of control | [6] 103 % of control and 105 % of control | [7] 93 % of control

CCCCC(=O)Nc1cccc(OC(=O)NC)c1
inactive: [8] 92 % of control | [9] 95 % of control | [10] 87 % of control

CC1C(=O)OC(C)(C)OC1=O
inactive: dose: 25.0 mg/kg/injection, schedule: Q01DX009 (ip), vehicle: Klucel (hydroxypropylcellulose) (HPC) 99 % of control | dose: 50.0 mg/kg/injection, schedule: Q01DX009 (ip), vehicle: Klucel (hydroxypropylcellulose) (HPC) 100 % of control | [1] 98 % of control | [3] 94 % of control | [11] 103 % of control

NS(=O)(=O)CCCCCCN1C(=O)c2ccccc2C1=O
inactive: [8] 91 % of control | [9] 93 % of control | [10] 93 % of control

O=c1ccn(O)cc1
inactive: dose: 100.0 mg/kg/injection, schedule: Q04DX002 (ip), vehicle: other 96 % of control | dose: 200.0 mg/kg/injection, schedule: Q04DX002 (ip), vehicle: other 100 % of control | dose: 400.0 mg/kg/injection, schedule: Q04DX002 (ip), vehicle: other 88 % of control

C/C(CCC(=O)OC(C)(C)C)=N\N(C)C
inactive: [12] 93 % of control | [13] 91 % of control | [14] 111 % of control

CCCN(CCC)CP(=O)(CN(CCC)CCC)CN(CCC)CCC
inactive: dose: 25.0 mg/kg/injection, schedule: Q04DX003 (ip), vehicle: saline with Tween-80 92 % of control | dose: 50.0 mg/kg/injection, schedule: Q04DX003 (ip), vehicle: saline with Tween-80 90 % of control | [8] 93 % of control

O=C(COc1ccc(Cl)cc1Cl)Nc1ccccc1[N+](=O)[O-]
inactive: dose: 100.0 mg/kg/injection, schedule: Q04DX002 (ip), vehicle: saline 92 % of control | dose: 200.0 mg/kg/injection, schedule: Q04DX002 (ip), vehicle: saline 92 % of control | dose: 400.0 mg/kg/injection, schedule: Q04DX002 (ip), vehicle: saline 92 % of control

CNC(=O)Nc1cccc2c(=O)[nH][nH]c(=O)c12
inactive: [1] 114 % of control | [2] 97 % of control | [3] 100 % of control | [4] 108 % of control | [11] 86 % of control | [5] 91 % of control

COc1ccc(S(=O)(=O)F)cc1NC(=O)NCCOc1ccc(-n2cnc3c(=O)[nH]c(N)nc32)cc1
inactive: dose: 100.0 mg/kg/injection, schedule: Q01DX001 (ip), vehicle: Klucel (hydroxypropylcellulose) (HPC) 102 % of control | dose: 200.0 mg/kg/injection, schedule: Q01DX001 (ip), vehicle: Klucel (hydroxypropylcellulose) (HPC) 97 % of control | dose: 400.0 mg/kg/injection, schedule: Q01DX001 (ip), vehicle: Klucel (hydroxypropylcellulose) (HPC) 96 % of control

Cc1ccc(S(=O)(=O)OCC2OC3(COS(=O)(=O)c4ccc(C)cc4)OC(C)(C)OC3C2O)cc1 (configuration not stated)
inactive: [15] 92 % of control | [16] 87 % of control | [17] 87 % of control

CC1=NCCN=C(C)C1
inactive: [12] 96 % of control | [13] 98 % of control | [14] 112 % of control

O=C(COc1ccc(Br)cc1)Nc1ccc(Cl)cc1
inactive: [6] 95 % of control | dose: 200.0 mg/kg/injection, schedule: Q04DX002 (ip), vehicle: Klucel (hydroxypropylcellulose) (HPC) 92 % of control | [7] 89 % of control

CCCCCCCCCCOB(OCCCCCCCCCC)OCCCCCCCCCC
inactive: [15] 93 % of control | [16] 96 % of control | [17] 96 % of control

C/C=C1/CN(C)C2Cc3c([nH]c4ccccc34)C(c3cc4[nH]c5c(c4cc3OC)CCN3CC4CC(C(C)O)C3C5(C(=O)OC)C4)CC1C2C(=O)OC (configuration not stated)
inactive: dose: 10.0 mg/kg/injection, schedule: Q01DX Z (ip), vehicle: other 97 % of control | dose: 20.0 mg/kg/injection, schedule: Q01DX Z (ip), vehicle: other 93 % of control | dose: 30.0 mg/kg/injection, schedule: Q01DX Z (ip), vehicle: other 90 % of control | dose: 30.0 mg/kg/injection, schedule: Q02DX Z (ip), vehicle: other 104 % of control | dose: 40.0 mg/kg/injection, schedule: Q01DX Z (ip), vehicle: other 95 % of control | dose: 40.0 mg/kg/injection, schedule: Q01DX Z (ip), vehicle: water 90 % of control | dose: 40.0 mg/kg/injection, schedule: Q02DX Z (ip), vehicle: other 103 % of control | dose: 60.0 mg/kg/injection, schedule: Q02DX Z (ip), vehicle: other 102 % of control | dose: 80.0 mg/kg/injection, schedule: Q01DX Z (ip), vehicle: water 94 % of control | dose: 80.0 mg/kg/injection, schedule: Q02DX Z (ip), vehicle: other 95 % of control

NC(=O)N/C=C1\CCCOC1=O
inactive: [16] 98 % of control | [17] 93 % of control and 91 % of control | [8] 96 % of control | dose: 200.0 mg/kg/injection, schedule: Q01DX009 (ip), vehicle: saline with Tween-80 98 % of control and 109 % of control | [9] 104 % of control | dose: 400.0 mg/kg/injection, schedule: Q01DX009 (ip), vehicle: saline with Tween-80 109 % of control

COc1ccc(NCC(O)CN2CCCC2)cc1 (configuration not stated)
inactive: dose: 100.0 mg/kg/injection, schedule: Q01DX001 (ip), vehicle: saline 112 % of control | dose: 200.0 mg/kg/injection, schedule: Q01DX001 (ip), vehicle: saline 104 % of control

CCCCCCCC(=O)N(CC(C)C)CC(C)C
inactive: dose: 100.0 mg/kg/injection, schedule: Q01DX001 (ip), vehicle: carboxymethylcellulose (CMC) 102 % of control | dose: 100.0 mg/kg/injection, schedule: Q01DX009 (ip), vehicle: carboxymethylcellulose (CMC) 97 % of control | dose: 100.0 mg/kg/injection, schedule: Q04DX002 (ip), vehicle: carboxymethylcellulose (CMC) 101 % of control and 102 % of control | dose: 100.0 mg/kg/injection, schedule: Q04DX003 (ip), vehicle: carboxymethylcellulose (CMC) 97 % of control | dose: 200.0 mg/kg/injection, schedule: Q01DX001 (ip), vehicle: carboxymethylcellulose (CMC) 96 % of control | dose: 200.0 mg/kg/injection, schedule: Q01DX009 (ip), vehicle: carboxymethylcellulose (CMC) 93 % of control and 98 % of control | dose: 200.0 mg/kg/injection, schedule: Q04DX002 (ip), vehicle: carboxymethylcellulose (CMC) 97 % of control and 102 % of control | dose: 200.0 mg/kg/injection, schedule: Q04DX003 (ip), vehicle: carboxymethylcellulose (CMC) 97 % of control | dose: 400.0 mg/kg/injection, schedule: Q01DX001 (ip), vehicle: carboxymethylcellulose (CMC) 91 % of control | dose: 400.0 mg/kg/injection, schedule: Q04DX002 (ip), vehicle: carboxymethylcellulose (CMC) 94 % of control | dose: 400.0 mg/kg/injection, schedule: Q04DX003 (ip), vehicle: carboxymethylcellulose (CMC) 90 % of control
